Data on 29 compounds can be found in patent US8906925B2, “Pyrido[4,3-B]indoles containing rigid moieties” (Medivation Technologies, Inc., priority 2008, dated 2014).

Read-outs that look alike come from different tables or passages of the source.

The target in test [1] is histamine receptor H1 (Homo sapiens, UniProt P35367). The test is described as follows: Histamine H1 radioligand binding ([3H]Pyrilamine). The conditions noted are these: read-out: Histamine Binding (1 μM) H1, percent inhibition of specific binding, 1 μM. The procedure, abridged: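 Values are percent inhibition of specific [3H]pyrilamine (1.2 nM) binding with compounds at ≤1 μM (1% DMSO vehicle); 180 min incubation at 25 °C, pH 7.4 Tris buffer, on CHO-expressed human H1 receptor; 1 μM pyrilamine defined nonspecific binding, bound ligand counted after filtration.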
histamine receptor H1, sequence (P35367 whole entry): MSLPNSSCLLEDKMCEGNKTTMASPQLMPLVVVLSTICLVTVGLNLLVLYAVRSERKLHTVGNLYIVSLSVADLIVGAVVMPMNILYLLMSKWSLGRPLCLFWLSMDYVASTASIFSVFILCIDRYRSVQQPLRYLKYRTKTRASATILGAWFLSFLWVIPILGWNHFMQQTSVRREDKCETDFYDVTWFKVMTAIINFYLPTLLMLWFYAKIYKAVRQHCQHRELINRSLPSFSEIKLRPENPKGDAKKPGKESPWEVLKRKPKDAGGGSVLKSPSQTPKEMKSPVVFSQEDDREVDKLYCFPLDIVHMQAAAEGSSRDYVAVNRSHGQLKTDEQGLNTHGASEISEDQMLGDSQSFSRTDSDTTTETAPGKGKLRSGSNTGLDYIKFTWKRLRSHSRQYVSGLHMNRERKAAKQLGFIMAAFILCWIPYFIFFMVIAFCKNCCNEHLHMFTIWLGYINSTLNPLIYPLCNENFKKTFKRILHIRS

In test [2] the target is human dopamine D2L receptor (Homo sapiens, UniProt P14416). Put plainly: Dopamine D2L radioligand binding ([3H]Spiperone). The settings on record: compound at 1 μM. The text has this: Non-specific binding was estimated in the presence of […] Haloperidol. Receptor proteins were filtered and washed, the filters were then counted to determine [^3H]Spiperone specifically bound. […] Biochemical assay results are presented as the percent inhibition of specific binding in Table 9.
human dopamine D2L receptor, sequence (P14416 whole entry): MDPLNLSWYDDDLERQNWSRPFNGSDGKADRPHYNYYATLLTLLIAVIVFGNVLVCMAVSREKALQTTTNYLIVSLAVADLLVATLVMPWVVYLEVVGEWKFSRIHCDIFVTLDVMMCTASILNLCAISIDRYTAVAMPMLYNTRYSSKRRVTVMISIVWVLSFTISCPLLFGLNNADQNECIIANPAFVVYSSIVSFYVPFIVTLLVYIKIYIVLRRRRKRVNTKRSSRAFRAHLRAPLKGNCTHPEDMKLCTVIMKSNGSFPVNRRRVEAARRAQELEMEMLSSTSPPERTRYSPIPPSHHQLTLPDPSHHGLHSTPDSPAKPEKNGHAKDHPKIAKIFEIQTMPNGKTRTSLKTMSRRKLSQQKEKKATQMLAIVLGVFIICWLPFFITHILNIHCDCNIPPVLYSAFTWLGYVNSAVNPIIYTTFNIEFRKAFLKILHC

The mark [3] stands for this setting: […] [3H]Spiperone, read-out: Inhibition of ligand binding, Dopamine D2L (percent inhibition of specific binding).
Where [4] appears, read: percent inhibition of specific binding, read-out: Inhibition of ligand binding, Dopamine D2L.

For orientation: inhibition means the relative decrease from the control value, in per cent. With `C/C(=C/n1c2c(c3cc(C)ccc31)CN(C)CC2)c1cccc(C(=O)N(C)C)c1` [Compound No. 458, (Z)-3-(1-(2,8-dimethyl-3,4-dihydro-1H-pyrido[4,3-b]indol-5(2H)-yl)prop-1-en-2-yl)-N,N-dimethylbenzamide], the inhibition at 1 µM amounted to 56% in test [1] and 15% in test [2] (setting [3]).

In the case of `COc1ccc(/C(F)=C/n2c3c(c4cc(C)ccc42)CN(C)CC3)cn1` [compound 430, (Z)-5-(2-fluoro-2-(6-methoxypyridin-3-yl)vinyl)-2,8-dimethyl-2,3,4,5-tetrahydro-1H-pyrido[4,3-b]indole], the inhibition at 1 µM in test [1] stood at 72%; in test [2] (setting [3]) it was 25%.

Consider `Cc1ccc2c(c1)c1c(n2C#Cc2cscn2)CCN(C)C1` [Compound No. 498, 4-((2,8-dimethyl-3,4-dihydro-1H-pyrido[4,3-b]indol-5(2H)-vyl)ethynyl)thiazole], for which the inhibition at 1 µM came out at 65% in test [1] and 9% in test [2] (setting [3]).

Regarding `CN1CCc2c(c3cc(Cl)ccc3n2/C=C/c2ccccc2)C1` [compound 415, (E)-8-chloro-2-methyl-5-styryl-2,3,4,5-tetrahydro-1H-pyrido[4,3-b]indole], the results for the inhibition at 1 µM in test [1] and in test [2] (setting [3]) were 97% and 95%, respectively.

Take `Cc1ccc2c(c1)c1c(n2/C=C(/c2ccccc2)c2ccncc2)CCN(C)C1` [compound 453, (Z)-2,8-dimethyl-5-(2-phenyl-2-(pyridin-4-yl)vinyl)-2,3,4,5-tetrahydro-1H-pyrido[4,3-b]indole]: the inhibition at 1 µM amounted to 26% in test [1] and 51% in test [2] (setting [3]).

As for `C/C(=C\n1c2c(c3cc(C)ccc31)CN(CCF)CC2)c1ccncc1` [compound 422, (E)-2-(2-fluoroethyl)-8-methyl-5-(2-(pyridin-4-yl)prop-1-enyl)-2,3,4,5-tetrahydro-1H-pyrido[4,3-b]indole], the inhibition at 1 µM in test [1] came out at 8%; in test [2] (setting [3]) it was 68%.

Turning to `C/C(=C\n1c2c(c3cc(Cl)ccc31)CN(C)CC2)c1cc(C)nc(C)c1` [compound 393, (E)-8-chloro-5-(2-(2,6-dimethylpyridin-4-yl)prop-1-enyl)-2-methyl-2,3,4,5-tetrahydro-1H-pyrido[4,3-b]indole], the inhibition at 1 µM in test [1] is 69%; in test [2] (setting [3]), 99%.

For `COCCCN1CCc2c(c3cc(C)ccc3n2/C=C(\C)c2ccncc2)C1` [compound 400, (E)-2-(3-methoxypropyl)-8-methyl-5-(2-(pyridin-4-yl)prop-1-enyl)-2,3,4,5-tetrahydro-1H-pyrido[4,3-b]indole], the inhibition at 1 µM in test [1] amounted to 22%; in test [2] (setting [3]), 94%.

Consider `CSc1cccc(/C(C)=C/n2c3c(c4cc(C)ccc42)CN(C)CC3)c1` [Compound No. 474, (E)-2,8-dimethyl-5-(2-(3-(methylthio)phenyl)prop-1-enyl)-2,3,4,5-tetrahydro-1H-pyrido[4,3-b]indole], for which the inhibition at 1 µM in test [1] amounted to 98%; in test [2] (setting [3]), 53%.

Turning to `C/C(=C\n1c2c(c3cc(Cl)ccc31)CN(CCCC1(c3ccc(F)cc3)OCCO1)CC2)c1ccncc1` [compound 398, (E)-8-chloro-2-(3-(2-(4-fluorophenyl)-1,3-dioxolan-2-yl)propyl)-5-(2-(pyridin-4-yl)prop-1-enyl)-2,3,4,5-tetrahydro-1H-pyrido[4,3-b]indole], the inhibition at 1 µM worked out at 95% in test [1] and 97% in test [2] (setting [3]).

`C/C=C(/c1ccccc1)n1c2c(c3cc(C)ccc31)CN(C)CC2` [compound 408, (Z)-2,8-dimethyl-5-(1-phenylprop-1-enyl)-2,3,4,5-tetrahydro-1H-pyrido[4,3-b]indole]: the inhibition at 1 µM in test [1] stood at 98%; in test [2] (setting [3]), 44%.

Take `C/C(=C\n1c2c(c3cc(C)ccc31)CN(C)CC2)c1cccs1` [Compound 294, (E)-2,8-dimethyl-5-(2-(thiophen-2-yl)prop-1-enyl)-2,3,4,5-tetrahydro-1H-pyrido[4,3-b]indole]: the inhibition at 1 µM in test [1] and in test [2] (setting [4]) was 83% throughout.

Consider `C/C(=C(/C)n1c2c(c3cc(C)ccc31)CN(C)CC2)c1ccncc1` [compound 403, (E)-2,8-dimethyl-5-(3-(pyridin-4-yl)but-2-en-2-yl)-2,3,4,5-tetrahydro-1H-pyrido[4,3-b]indole], for which the inhibition at 1 µM is 37% in test [1] and 66% in test [2] (setting [3]).

Turning to `C/C(=C\c1ccccc1)n1c2c(c3cc(C)ccc31)CN(C)CC2` [compound 428, (E)-2,8-dimethyl-5-(1-phenylprop-1-en-2-yl)-2,3,4,5-tetrahydro-1H-pyrido[4,3-b]indole], the inhibition at 1 µM in test [1] came to 97%; in test [2] (setting [3]), 57%.

With `C/C(=C\n1c2c(c3cc(C)ccc31)CN(C)CC2)c1cc(C)nc(C)c1` [compound 399, (E)-5-(2-(2,6-dimethylpyridin-4-yl)prop-1-enyl)-2,8-dimethyl-2,3,4,5-tetrahydro-1H-pyrido[4,3-b]indole], the inhibition at 1 µM in test [1] was 13%; in test [2] (setting [3]), 73%.

As to `C/C(=C(/C)n1c2c(c3cc(C)ccc31)CN(C)CC2)c1ccc(F)cc1` [compound 421, (E)-5-(3-(4-fluorophenyl)but-2-en-2-yl)-2,8-dimethyl-2,3,4,5-tetrahydro-1H-pyrido[4,3-b]indole], the inhibition at 1 µM in test [1] was found to be 93%; in test [2] (setting [3]), 79%.

Take `C=C(Cn1c2c(c3cc(Cl)ccc31)CN(C)C(C)C2)c1ccncc1` (stereo not shown) [Compound 365, 8-chloro-2,3-dimethyl-5-(2-(pyridin-4-yl)allyl)-2,3,4,5-tetrahydro-1H-pyrido[4,3-b]indole]: the inhibition at 1 µM in test [1] was 92%; in test [2] (setting [3]), 49%.

In the case of `Cc1ccc2c(c1)c1c(n2C#Cc2ccsc2)CCN(C)C1` [Compound No. 491, 2,8-dimethyl-5-(thiophen-3-ylethynyl)-2,3,4,5-tetrahydro-1H-pyrido[4,3-b]indole], the inhibition at 1 µM is 52% in test [1] and 82% in test [2] (setting [3]).

With `C/C(=C\n1c2c(c3cc(C)ccc31)CN(C1CC1)CC2)c1ccncc1` [Compound 292, (E)-2-cyclopropyl-8-methyl-5-(2-(pyridin-4-v)prop-1-enyl)-2,3,4,5-tetrahydro-H-pyrido[4,3-b]indole], the values for the inhibition at 1 µM in test [1] and in test [2] (setting [4]) were 11% and 71%, respectively.

With `C/C(=C\n1c2c(c3cc(C)ccc31)CN(C=O)CC2)c1ccncc1` [compound 411, (E)-8-methyl-5-(2-(pyridin-4-yl)prop-1-enyl)-3,4-dihydro-1H-pyrido[4,3-b]indole-2(5H)-carbaldehyde], the inhibition at 1 µM is 0% in test [1] and 55% in test [2] (setting [3]).

With `C/C(=C\n1c2c(c3cc(C)ccc31)CN(C)CC2)c1ccsc1` [compound 387, (E)-2,8-dimethyl-5-(2-(thiophen-3-yl)prop-1-enyl)-2,3,4,5-tetrahydro-1H-pyrido[4,3-b]indole], the inhibition at 1 µM amounted to 84% in test [1] and 99% in test [2] (setting [3]).

As for `C/C(=C\n1c2c(c3cc(N4CCCCC4)ccc31)CN(C)CC2)c1ccncc1` [compound 445, (E)-2-methyl-8-(piperidin-1-yl)-5-(2-(pyridin-4-yl)prop-1-enyl)-2,3,4,5-tetrahydro-1H-pyrido[4,3-b]indole], the inhibition at 1 µM amounted to 1% in test [1] and 20% in test [2] (setting [3]).

`C/C(=C/n1c2c(c3cc(C)ccc31)CN(C)CC2)C1CCCCC1` [Compound 368, (Z)-5-(2-cyclohexylprop-1-enyl)-2,8-dimethyl-2,3,4,5-tetrahydro-1H-pyrido[4,3-b]indole]: the inhibition at 1 µM is 82% in test [1] and 74% in test [2] (setting [3]).

As for `COc1ccc(/C(C)=C/n2c3c(c4cc(C)ccc42)CN(C)CC3)cn1` [compound 441, (E)-5-(2-(6-methoxypyridin-3-yl)prop-1-enyl)-2,8-dimethyl-2,3,4,5-tetrahydro-1H-pyrido[4,3-b]indole], the results for the inhibition at 1 µM in test [1] and in test [2] (setting [3]) were 91% and 64%, respectively.

For the compound `COCCNc1ccc2c(c1)c1c(n2/C=C(\C)c2ccncc2)CCN(C)C1` [compound 440], the inhibition at 1 µM in test [1] was determined as 4%; in test [2] (setting [3]), 16%.

With `C/C(=C/c1ccccc1)n1c2c(c3cc(C)ccc31)CN(C)CC2` [compound 429, (Z)-2,8-dimethyl-5-(1-phenylprop-1-en-2-yl)-2,3,4,5-tetrahydro-1H-pyrido[4,3-b]indole], the inhibition at 1 µM in test [1] is 101%; in test [2] (setting [3]) it was 30%.

As for `CNC(=O)c1ccc(C#Cn2c3c(c4cc(C)ccc42)CN(C)CC3)cc1F` [Compound No. 488, 4-((2,8-dimethyl-3,4-dihydro-1H-pyrido[4,3-b]indol-5(2H)-yl)ethynyl)-2-fluoro-N-methylbenzamide], the inhibition at 1 µM in test [1] came out at 9%; in test [2] (setting [3]) it was 19%.

Take `CN1CCc2c(c3cc(Cl)ccc3n2/C=C(/c2ccccc2)c2ccncc2)C1` [Compound No. 461, (Z)-8-chloro-2-methyl-5-(2-phenyl-2-(pyridin-4-yl)vinyl)-2,3,4,5-tetrahydro-1H-pyrido[4,3-b]indole]: the inhibition at 1 µM in test [1] was found to be 31%; in test [2] (setting [3]), 78%.

As for `C/C(=C\n1c2c(c3ccc(C(C)C)cc31)CN(C)CC2)c1ccncc1` [Compound 334, (E)-7-isopropyl-2-methyl-5-(2-(pyridin-4-yl)prop-1-enyl)-2,3,4,5-tetrahydro-1H-pyrido[4,3-b]indole], the inhibition at 1 µM in test [1] worked out at 18%; in test [2] (setting [4]), 90%.
